# Assay results reported in patent US20260132164A1, “PNU ANTHRACYCLINE DERIVATIVES AND METHODS OF USE THEREOF” (Merck Sharp & Dohme LLC, priority 2022, published 2026).
# Test system: BxPC3
# Test: CellTiter-Glo 2.0 Cytotoxicity Assay
# Assay type: cell-based
# Conditions: CellTiter-Glo 2.0 luminescence; compound added day 1, read on day 4 or 5; 3000 cells/well
row,SMILES,EC50
1,COc1cccc2c1C(=O)c1c(O)c3c(c(O)c1C2=O)C[C@@](O)(C(=O)NCC1CC(=O)NC1=O)C[C@@H]3O[C@H]1C[C@H]2[C@H](O[C@@H]3[C@@H](OC)OCCN32)[C@H](C)O1 (some centres unmarked) [Compound 87],0.12 nM
2,COc1cccc2c1C(=O)c1c(O)c3c(c(O)c1C2=O)C[C@@](O)(C(=O)NCC1CC(=O)NC1=O)C[C@@H]3O[C@H]1C[C@H]2[C@H](O[C@@H]3[C@@H](OC)OCCN32)[C@H](C)O1 (some centres unmarked) [Compound 88],0.27 nM

# Same assay, conditions: Homo sapiens, BXPC-3, CellTiter-Glo 2.0 luminescence; compound added day 1, read on day 4 or 5; 3000 cells/well
row,SMILES,EC50
1,COc1cccc2c1C(=O)c1c(O)c3c(c(O)c1C2=O)C[C@@](O)(C(=O)NCCC(N)C(F)F)C[C@@H]3O[C@H]1C[C@H]2[C@H](O[C@@H]3[C@@H](OC)OCCN32)[C@H](C)O1 (some centres unmarked) [Compound 74],0.2 nM
2,COc1cccc2c1C(=O)c1c(O)c3c(c(O)c1C2=O)C[C@@](O)(C(=O)N1C[C@H]2CN[C@H]2C1)C[C@@H]3O[C@H]1C[C@H]2[C@H](O[C@@H]3[C@@H](OC)OCCN32)[C@H](C)O1 [Compound 75],2.9 nM
3,COc1cccc2c1C(=O)c1c(O)c3c(c(O)c1C2=O)C[C@@](O)(C(=O)N1C[C@@H]2CN[C@@H]2C1)C[C@@H]3O[C@H]1C[C@H]2[C@H](O[C@@H]3[C@@H](OC)OCCN32)[C@H](C)O1 [Compound 76],15 nM
4,COc1cccc2c1C(=O)c1c(O)c3c(c(O)c1C2=O)C[C@@](O)(C(=O)Nc1ccc(N)cc1)C[C@@H]3O[C@H]1C[C@H]2[C@H](O[C@@H]3[C@@H](OC)OCCN32)[C@H](C)O1 [Compound 77],0.11 nM
5,COc1cccc2c1C(=O)c1c(O)c3c(c(O)c1C2=O)C[C@@](O)(C(=O)NCc1ccc(O)cc1)C[C@@H]3O[C@H]1C[C@H]2[C@H](O[C@@H]3[C@@H](OC)OCCN32)[C@H](C)O1 [Compound 78],0.056 nM
6,COc1cccc2c1C(=O)c1c(O)c3c(c(O)c1C2=O)C[C@@](O)(C(=O)NCc1ccccc1N)C[C@@H]3O[C@H]1C[C@H]2[C@H](O[C@@H]3[C@@H](OC)OCCN32)[C@H](C)O1 [Compound 79],0.15 nM
7,COc1cccc2c1C(=O)c1c(O)c3c(c(O)c1C2=O)C[C@@](O)(C(=O)N[C@H]1CCC[C@@H]1N)C[C@@H]3O[C@H]1C[C@H]2[C@H](O[C@@H]3[C@@H](OC)OCCN32)[C@H](C)O1 [Compound 80],14.1 nM
8,COc1cccc2c1C(=O)c1c(O)c3c(c(O)c1C2=O)C[C@@](O)(C(=O)Nc1cc(N)n(C)n1)C[C@@H]3O[C@H]1C[C@H]2[C@H](O[C@@H]3[C@@H](OC)OCCN32)[C@H](C)O1 [Compound 81],0.4 nM
9,COc1cccc2c1C(=O)c1c(O)c3c(c(O)c1C2=O)C[C@@](O)(C(=O)NCc1nc(N)cn1C)C[C@@H]3O[C@H]1C[C@H]2[C@H](O[C@@H]3[C@@H](OC)OCCN32)[C@H](C)O1 [Compound 82],0.26 nM
10,COc1cccc2c1C(=O)c1c(O)c3c(c(O)c1C2=O)C[C@@](O)(C(=O)Nc1ccc(CN)cc1)C[C@@H]3O[C@H]1C[C@H]2[C@H](O[C@@H]3[C@@H](OC)OCCN32)[C@H](C)O1 [Compound 83],11 nM
11,COc1cccc2c1C(=O)c1c(O)c3c(c(O)c1C2=O)C[C@@](O)(C(=O)NCC12CC(N)(C1)C2)C[C@@H]3O[C@H]1C[C@H]2[C@H](O[C@@H]3[C@@H](OC)OCCN32)[C@H](C)O1 [Compound 84],0.61 nM
12,COc1cccc2c1C(=O)c1c(O)c3c(c(O)c1C2=O)C[C@@](O)(C(=O)NC[C@H]1CNC(=O)C1)C[C@@H]3O[C@H]1C[C@H]2[C@H](O[C@@H]3[C@@H](OC)OCCN32)[C@H](C)O1 [Compound 85],0.4 nM
13,COc1cccc2c1C(=O)c1c(O)c3c(c(O)c1C2=O)C[C@@](O)(C(=O)NC[C@@H]1CNC(=O)C1)C[C@@H]3O[C@H]1C[C@H]2[C@H](O[C@@H]3[C@@H](OC)OCCN32)[C@H](C)O1 [Compound 86],0.39 nM
14,COc1cccc2c1C(=O)c1c(O)c3c(c(O)c1C2=O)C[C@@](O)(C(=O)NCCO)C[C@@H]3O[C@H]1C[C@H]2[C@H](O[C@@H]3[C@@H](OC)OCCN32)[C@H](C)O1 [Compound 89],0.37 nM
15,COc1cccc2c1C(=O)c1c(O)c3c(c(O)c1C2=O)C[C@@](O)(C(=O)NC12CC(O)(C1)C2)C[C@@H]3O[C@H]1C[C@H]2[C@H](O[C@@H]3[C@@H](OC)OCCN32)[C@H](C)O1 [Compound 90],0.23 nM
